{
  "source": "patent US10780174B2",
  "about": "“Lipid-linked prodrugs” (The University of British Columbia, priority 2015, dated 2020)",
  "key": {"[1]": {"assay": "In vitro dissociation of lipid-linked prodrugs from LNP in human plasma", "type": "in vitro ADME", "details": "human plasma over 24 h, 37° C., PC-Chol LNP or ionizable LNP", "experimental": "LNP were incubated for 0, 3, 5 and 24 h at 37° C. in 400 μL of sterile human plasma (Cedarlane™, Burlington, Ontario) at a final lipid concentration of 1.2 mM. At the various time-points, samples were loaded onto a 1.5×27 cm Sepharose CL-4B column (Sigma-Aldrich™, St. Louis, Mo.). 30×2 mL fractions were collected. Three volumes of methanol/acetonitrile (1:1) were added to each fraction and analyzed by UHPLC to determine the residual LD-DEX/DTX as described above."}, "[2]": {"assay": "Prodrug incorporation (entrapment) in lipid nanoparticles, UHPLC", "type": "physicochemical", "details": "for % Entrapment PC-Chol LNP: LD-DEX prodrug in PC-Chol LNP; for % Entrapment [ionizable LNP]: LD-DEX prodrug in ionizable LNP", "experimental": "(§1) Preparation of LNP Systems: PC-Chol LNP systems were prepared by rapidly mixing POPC, cholesterol, lipid-linked prodrug and PEG-DMPE (in molar ratio of 49/39/10/2) dissolved in ethanol with phosphate-buffered saline using a T-junction mixer. Formulations were dialyzed against phosphate-buffered saline to remove residual ethanol and to raise the pH to 7.4. PC-TO and ionizable LNP systems were prepared in the same way except that the lipid compositions for these systems are: POPC, triolein, lipid-linked prodrug and PEG-DSPE (in molar ration of 19/70/10/1), and ionizable lipid, DSPC, cholesterol, lipid-linked prodrug and PEG-DMPE (in molar ration of 40/10/38.5/10/1.5), respectively.\n(§2) Quantitation of prodrugs by HPLC: LD-DEX/DTX were quantified by ultra high-pressure liquid chromatography (UHPLC) using a Waters Acquity™ UPLC system equipped with a photodiode array detector (PDA) and evaporative light scattering (ELS) detector; Empower™ data acquisition software version 3.0 was used (Waters™, USA). Separations were performed using a Waters Acquity™ BEH C18 column (1.7 μm, 2.1×100 mm) at a flow rate of 0.5 ml/min, with mobile phases A and B consisting of methanol/10 mM ammonium bicarbonate (80/20% v/v) and methanol/acetonitrile (80/20% v/v), respectively. The mobile phases were delivered at a programmed linear gradient (45%-80% B in 1 min then to 99% B at 2 min) at a column temperature of 55° C. The analyte was measured by PDA (at a wavelength of 239 nm) and ELS detector against calibration standard curves. For the analysis of LD-DEX/DTX breakdown to active compound, linear gradients of 20/80% to 100/0% (acetonitrile/water, v/v) over 7 min were used."}, "[3]": {"assay": "Particle size and polydispersity of LNP containing prodrug (dynamic light scattering)", "type": "physicochemical", "details": "PDI in brackets; for Particle size (PDI) PC-Chol LNP: LD-DEX prodrug in PC-Chol LNP; for Particle size (PDI) [ionizable LNP]: LD-DEX prodrug in ionizable LNP", "experimental": "as §1\nCharacterization of LNP: Particle size was determined by dynamic light scattering using a Malvern Zetasizer Nano ZS™ (Malvern, UK) following buffer exchange into phosphate-buffered saline. Number-weighted size and distribution data was used. Lipid concentrations were determined by measuring total cholesterol using the Cholesterol E enzymatic assay kit from Wako Chemicals USA™ (Richmond, Va.). The morphology of LNP formulations containing LD-DEX was analyzed by cryogenic-transmission electron microscopy (cryoTEM) as described previously [Leung et al. (2012)]."}, "[4]": {"test_system": "immunostimulatory effects of LNP-CpG (plasma cytokines)", "assay": "In vivo immune suppression by LD-DEX prodrugs, LNP-CpG model", "design": "species or system C57Bl/6 mice", "details": "mice, i.v., 10 mg/kg of CpG, 2 h post injection", "experimental": "(§3) 6-8 Weeks old female C57Bl/6 mice (Charles River Laboratories™, Wilmington, Mass.) were injected intravenously with lipid nanoparticles containing CpG DNA oligonucleotides (10 mg/kg), mRNA (3 mg/kg) or plasmid DNA (pDNA) (1 mg/kg). Animals were euthanized 2 hours post-injection and blood was collected via intracardiac or saphenous sampling. Plasma was separated from whole blood by centrifugation and analyzed for proinflammatory cytokines using the Mesoscale Proinflammatory Multiplex™ kit (Rockville, Md.) according to manufacturer's instruction. All procedures were approved by the Animal Care Committee at the University of British Columbia and were performed in accordance with guidelines established by the Canadian Council on Animal Care."}, "[5]": {"test_system": "purified porcine esterase", "assay": "In vitro degradation of lipid-linked prodrugs in LNP, purified esterase in PBS", "details": "for prodrug degradation over 24 h in purified esterase: LNP, 0, 2, 4 and 24 h; for release of active drug (UPLC chromatogram) in purified esterase: 24 h incubation"}, "[6]": {"assay": "In vitro degradation of lipid-linked prodrugs in LNP, mouse plasma", "type": "in vitro ADME", "details": "for prodrug degradation over 24 h in mouse plasma: LNP, 0, 2, 4 and 24 h; for prodrug cleavage/degradation after 1 h in plasma: 37° C., mouse plasma; for release of active drug (UPLC chromatogram) in mouse plasma: 24 h incubation", "experimental": "as §2\nTo determine the biodegradability of the dexamethasone or docetaxel prodrugs (LD-DEX/DTX), 1 mg/mL LNP was incubated in mouse plasma (Cedarlane™, Burlington, Ontario) or PBS supplemented with 10 U of purified esterase (Sigma-Aldrich™, St. […] Post incubation, four volumes of chloroform/methanol (2:1) was added and the mixture was vortex mixed. Samples were centrifuged at 13,000 g for 5 minutes and the upper phase was discarded. The remaining organic phase was dried down under vacuum and the resulting lipid extract was dissolved in methanol/acetonitrile (1:1). Quantity of parent LD-DEX/DTX compound was determined by ultra high pressure liquid chromatography on a Waters Acquity™ H-Class UPLC System™ equipped with a BEH C18 column and a photodiode array detector."}, "[7]": {"test_system": "immunostimulatory effects of LNP-pDNA (plasma cytokines)", "assay": "In vivo immune suppression by LD-DEX prodrugs, LNP-pDNA model", "design": "species or system C57Bl/6 mice", "details": "mice, i.v., 1 mg/kg of pDNA, 2 h post injection", "experimental": "as §3"}, "[8]": {"test_system": "purified porcine esterase", "details": "pig, 1 mg/mL LNP"}, "[9]": {"test_system": "IL1β expression in RAW 264.7 mouse macrophage cells", "assay": "In vitro immune suppression, LPS-treated RAW 264.7 cells, IL1β qRT-PCR", "type": "cell-based", "details": "2 ng/mL LPS, 4 h", "experimental": "RAW 264.7 mouse macrophage cells were seeded at 250,000 cells per mL on 12-well plates and incubated at 37° C. overnight. Lipopolysaccharide (LPS) was dissolved in phosphate buffered saline at a concentration of 2 μg/ml. Cells were treated with lipid nanoparticles containing LD-DEX prodrugs and 2 ng/ml of LPS for 4 hours. This LPS concentration was chosen due to its ability to increase IL1β expression approximately 1000 times as compared to untreated cells. At the end of the incubation period, culture medium was aspirated and cellular RNA was extracted using the Purelink RNA™ extraction kit according to manufacturer's protocol (Life Technologies™, Burlington, ON). The concentration of extracted RNA was determined using a Nanodrop Lite™ (Thermo Fisher™). 1 μg of RNA was converted to cDNA using the High Capacity cDNA Reverse Transcription kit (Life Technologies™, Burlington, ON). In order to validate the sample preparation, a no template control and a negative reverse transcriptase control were included. The cDNA was then quantified using comparative real-time qPCR where the Ct (threshold cycle) values are converted to relative quantity using the 2-ΔΔCT method. The primer-probe sets were designed to bind to cDNA of Interleukin-1β(IL1β). Hypoxanthine-guanine phosphoribosyltransferase (HPRT) was chosen as the endogenous normalizer gene, which is known to maintain consistent levels with varying treatments."}, "[10]": {"test_system": "immunostimulatory effects of LNP-mRNA (plasma cytokines)", "assay": "In vivo immune suppression by LD-DEX prodrugs, LNP-mRNA model", "design": "species or system C57Bl/6 mice", "details": "mice, 3 mg/kg of mRNA, 2 h post injection", "experimental": "as §3"}},
  "note": "“Also recorded” adds a separate entry of the source. Where two headings read alike, the source gives them in different places.",
  "data": [
    {"compound": "CCCCC/C=C\\C/C=C\\CCCCCCCC(=O)OC[C@H](COC(=O)CCC(=O)OCC(=O)[C@@]1(O)[C@H](C)C[C@H]2[C@@H]3CCC4=CC(=O)C=C[C@]4(C)[C@@]3(F)[C@@H](O)C[C@@]21C)OC(=O)CCCCCCC/C=C\\C/C=C\\CCCCC", "note": "[LD02-DEX, 2,3-dilinoleoyloxypropyl (2-((8S,9R,10S,11S,13S,14S,16R,17R)-9-fluoro-11,17-dihydroxy-10,13,16-trimethyl-3-oxo-6,7,8,9,10,11,12,13,14,15,16,17-dodecahydro-3H-cyclopenta[a]phenanthren-17-yl)-2-oxoethyl) succinate]", "values": [
      {"measurement": "prodrug dissociation rate from LNP", "setting": "[1]", "value": "dissociated from lipid nanoparticles at a slower rate than LD03-DEX"},
      {"measurement": "prodrug dissociation rate from LNP", "setting": "[1]; listed as LD02", "value": "dissociates from LNP at a slower rate than that of LD03"},
      {"measurement": "% Entrapment PC-Chol LNP", "setting": "[2]", "value": 100, "unit": "%"},
      {"measurement": "% Entrapment [ionizable LNP]", "setting": "[2]", "value": "[99] %"},
      {"measurement": "Particle size (PDI) PC-Chol LNP", "setting": "[3]", "value": "53 (0.05) nm"},
      {"measurement": "Particle size (PDI) [ionizable LNP]", "setting": "[3]", "value": "[49 (0.05)] nm"},
      {"measurement": "plasma TNFα and KC/GRO levels versus control LNP-CpG", "setting": "[4]", "value": "marked reduction in cytokine levels"},
      {"measurement": "prodrug degradation over 24 h in purified esterase", "setting": "[5]", "value": "progressively degraded"},
      {"measurement": "release of active drug (UPLC chromatogram) in purified esterase", "setting": "[5]; LNP", "value": "a peak corresponding to active dexamethasone (DEX) appeared"},
      {"measurement": "prodrug degradation over 24 h in mouse plasma", "setting": "[6]", "value": "progressively degraded"},
      {"measurement": "prodrug cleavage/degradation after 1 h in plasma", "setting": "[6]; LNP", "value": "virtually no degradation"},
      {"measurement": "release of active drug (UPLC chromatogram) in mouse plasma", "setting": "[6]; LNP", "value": "a peak corresponding to active dexamethasone (DEX) appeared"}
    ]},
    {"compound": "CCCCC/C=C\\C/C=C\\CCCCCCCCOC(=O)CCC(=O)OCC(=O)[C@@]1(O)[C@H](C)C[C@H]2[C@@H]3CCC4=CC(=O)C=C[C@]4(C)[C@@]3(F)[C@@H](O)C[C@@]21C", "note": "[LD03-DEX, linoleyl 2-((8S,9R,10S,11S,13S,14S,16R,17R)-9-fluoro-11,17-dihydroxy-10,13,16-trimethyl-3-oxo-6,7,8,9,10,11,12,13,14,15,16,17-dodecahydro-3H-cyclopenta[a]phenanthren-47-yl)-2-oxoethyl succinate]", "values": [
      {"measurement": "% Entrapment PC-Chol LNP", "setting": "[2]", "value": 94, "unit": "%"},
      {"measurement": "% Entrapment [ionizable LNP]", "setting": "[2]", "value": "[100] %"},
      {"measurement": "plasma cytokine levels versus control LNP-pDNA", "setting": "[7]; 1 mg/kg", "value": "efficiently suppressed cytokine levels"},
      {"measurement": "plasma cytokine levels versus control LNP-pDNA", "setting": "[7]; listed as LD03, 1 mg/kg", "value": "suppresses the immunostimulatory effects of LNP-pDNA"},
      {"measurement": "prodrug degradation over 24 h in purified esterase", "setting": "[8]", "value": "degraded at a faster rate than LD02-DEX"},
      {"measurement": "Particle size (PDI) PC-Chol LNP", "setting": "[3]", "value": "64 (0.06) nm"},
      {"measurement": "Particle size (PDI) [ionizable LNP]", "setting": "[3]", "value": "[48 (0.04)] nm"},
      {"measurement": "plasma TNFα and KC/GRO levels versus control LNP-CpG", "setting": "[4]", "value": "marked reduction in cytokine levels"},
      {"measurement": "prodrug degradation over 24 h in purified esterase", "setting": "[5]", "value": "progressively degraded"},
      {"measurement": "prodrug cleavage in PBS containing isolated esterases", "setting": "[5]; LNP, 1 or 4 h incubation", "value": "progressive prodrug cleavage"},
      {"measurement": "release of active drug (UPLC chromatogram) in purified esterase", "setting": "[5]; LNP", "value": "a peak corresponding to active dexamethasone (DEX) appeared"},
      {"measurement": "IL1β expression versus control LNP without prodrug", "setting": "[9]", "value": "able to reduce IL1β expression"},
      {"measurement": "plasma cytokine levels versus control LNP-mRNA", "setting": "[10]; 3 mg/kg", "value": "significantly reduced levels"},
      {"measurement": "plasma cytokine levels versus control LNP-mRNA", "setting": "[10]; listed as LD03, 3 mg/kg", "value": "suppresses the immunostimulatory effects of LNP-mRNA"},
      {"measurement": "prodrug degradation over 24 h in mouse plasma", "setting": "[6]", "value": "progressively degraded; also recorded: degraded at a faster rate than LD02-DEX"},
      {"measurement": "prodrug cleavage in plasma", "setting": "[6]; LNP, 1 or 4 h incubation in plasma", "value": "progressive prodrug cleavage"},
      {"measurement": "prodrug cleavage/degradation after 1 h in plasma", "setting": "[6]; LNP", "value": "significant cleavage"},
      {"measurement": "release of active drug (UPLC chromatogram) in mouse plasma", "setting": "[6]; LNP", "value": "a peak corresponding to active dexamethasone (DEX) appeared"}
    ]}
  ]
}
